Reference: US9551711B2, “Compositions and methods for detecting nitration of PKG-1α and methods of use thereof” (Augusta University Research Institute, Inc., priority 2013, dated 2017)

Biological target: T1, PKG-1α (Homo sapiens, UniProt Q13976, Y425F)
T1 construct: an expression plasmid containing a full length WT-PKG-1α cDNA; expressed in transfected cells; host or cells: HEK-293T
T1 sequence (Q13976 2-671 Y425F): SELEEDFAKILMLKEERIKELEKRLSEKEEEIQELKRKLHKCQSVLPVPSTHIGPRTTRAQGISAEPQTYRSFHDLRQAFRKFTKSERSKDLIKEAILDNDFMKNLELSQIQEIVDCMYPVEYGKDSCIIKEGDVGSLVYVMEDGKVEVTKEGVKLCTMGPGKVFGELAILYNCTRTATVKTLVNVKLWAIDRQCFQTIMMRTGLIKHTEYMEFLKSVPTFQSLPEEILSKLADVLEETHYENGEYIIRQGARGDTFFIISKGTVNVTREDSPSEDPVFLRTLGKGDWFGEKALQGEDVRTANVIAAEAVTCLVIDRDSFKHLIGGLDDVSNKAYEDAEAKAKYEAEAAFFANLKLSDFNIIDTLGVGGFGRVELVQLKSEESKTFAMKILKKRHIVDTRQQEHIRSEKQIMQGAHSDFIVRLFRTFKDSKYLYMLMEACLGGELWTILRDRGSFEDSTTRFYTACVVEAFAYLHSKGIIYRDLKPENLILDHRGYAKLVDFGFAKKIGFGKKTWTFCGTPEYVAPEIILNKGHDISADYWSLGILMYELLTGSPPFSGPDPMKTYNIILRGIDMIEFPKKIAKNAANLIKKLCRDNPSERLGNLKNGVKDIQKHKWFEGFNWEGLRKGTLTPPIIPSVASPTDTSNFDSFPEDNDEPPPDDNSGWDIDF
Experiment: PKG activity in transfected HEK-293T cells
Format: cell-based
Details: HEK-293T expressing Y425F-PKG-1α; SIN-1 500 μM, 30 min
Experimental: To determine the role of tyrosine 247 and tyrosine 425 in mediating the nitration dependent inhibition of PKG-1α kinase activity, Y247F- and Y425F-PKG-1α mutants were generated and expressed in HEK-293T cells. HEK-293T cells were transiently transfected with expression plasmids containing WT-, Y247F-, or Y425F-PKG-1α for 48 h. […] Protein extracts were immunoprecipitated using an antibody raised against PKG-1α and the level of nitrated PKG-1α determined by probing the membranes with an antiserum raised against 3-NT. The blots were then stripped and re-probed for PKG-1α to normalize for the efficiency of the immunoprecipitation.
Total PKG activity was determined using a non-radioactive immunoassay in cell lysates, according to the manufacturer's directions. […]
After incubation for 30 min at 30° C. to allow the phosphorylation of the bound substrate, an HRP conjugated anti-phosphothreonine specific antibody was added to convert a chromogenic substrate to a colorimetric substrate that was subsequently read spectrophotometrically at 450 nm. The change in absorbance reflected the relative activity of PKG in the sample. […] The kinetic constants were determined using nonlinear regression (curve fit) analysis (GraphPad Prism Software Inc.).

cGMP dependent PKG activity: attenuated
Substance: 3-morpholinosydnonimine N-ethylcarbamide [SIN-1]
